Experiments:
[1] = biological target: Alpha-synuclein (Homo sapiens) (UniProt P37840); assay: Inhibition of alpha-Synuclein (unknown origin) aggregation assessed as aggregation by measuring ThT fluorescence at 100 uM incubated for 5 days by ThT fluorescence assay (reference value: 100%); parameters: scale not given: the % may be the effect or the level left; conditions: time 5.0 day
[2] = biological target: Alpha-synuclein (Homo sapiens) (UniProt P37840); assay: Inhibition of alpha-Synuclein (unknown origin) aggregation assessed as aggregation by measuring ThT fluorescence at 500 uM incubated for 5 days by ThT fluorescence assay (reference value: 100%); parameters: scale not given: the % may be the effect or the level left; conditions: time 5.0 day

| SMILES | Activity [1] | Activity [2] |
| --- | --- | --- |
| Cc1c(C)c2cc(O)c(O)cc2c2cc(O)c(O)cc12 | 47.3% | 19.3% |
| CC1(C)c2cc(O)c(O)cc2-c2c(ccc(O)c2O)C1(C)C | 36.1% | 15.5% |
| CC1c2cc(O)c(O)cc2-c2c(ccc(O)c2O)C1C (configuration not stated) | 66.1% | 45.6% |
| Oc1cc2c(cc1O)-c1c(ccc(O)c1O)CC2 | 27.8% | 10.7% |
| CC(C)(c1ccc(O)c(O)c1)C(C)(C)c1ccc(O)c(O)c1 | 44.4% | 9.2% |
| Oc1ccc(CCc2ccc(O)c(O)c2)cc1O | 35.6% | 8.1% |
| Oc1cc2ccc3cc(O)c(O)cc3c2cc1O | 33.6% | 25.9% |
| C[C@@H]1Cc2cc(O)c(O)cc2-c2cc(O)c(O)cc2C[C@@H]1C | 28.6% | 13.6% |
| CC1(C)c2cc(O)c(O)cc2-c2cc(O)c(O)cc2C1(C)C | 56.1% | 39.8% |
| CC(c1ccc(O)c(O)c1)C(C)c1ccc(O)c(O)c1 (mixture of isomers) | 31.8% | 6.1% |
| Oc1cc2c(cc1O)-c1cc(O)c(O)cc1CC2 | 22.2% | 16.8% |

— ChEMBL document CHEMBL5236656, “The effect of diphenylethane side-chain substituents on dibenzocyclohexadiene formation and their inhibition of α-synuclein aggregation in vitro” (Bioorg Med Chem, 2023)
